Data: the supplement of paper PMC11061612

Columns and labels:
[1] = compound: C[C@@H](Oc1cc(-c2cnn(C3CCNCC3)c2)cnc1N)c1c(Cl)ccc(F)c1Cl [Crizotinib]; settings: max 10 µM
Outline: (§1)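 Following 24 hours at 37°C and 5% CO2, cancer cell lines in 1536-well plates with 7.5 μl DMEM/F12 or RPMI and 10% FBS were dosed for 72 hours, final DMSO typically being 0.2%. CellTiter-Glo 2.0 luminescence, scaled between blank-well and DMSO-well means, gave the viability readout. Dose responses were fitted to a two-parameter logistic curve with a non-linear mixed effects model, and the single-agent IC50 was derived from this fit.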

[2] = compound: COc1nnc2ccc(N3CCC(c4ccc(OCCN5CCN(C)C(=O)[C@H]5C)cc4)CC3)nn12 [AZD5153]; settings: max 1 µM
Outline: as §1

[3] = compound: CC(=O)c1c(C)c2cnc(Nc3ccc(N4CCNCC4)cn3)nc2n(C2CCCC2)c1=O [Palbociclib]; settings: max 10 µM
Outline: as §1

[4] = compound: C[C@@H]1COCCN1C2=NC(=NC(=C2)C3(CC3)[S@](=N)(=O)C)C4=C5C=CNC5=NC=C4 [AZD6738]; settings: max 10 µM
Outline: as §1

[5] = compound: Cc1cc2ncnn2cc1Nc1ncc2c(n1)n(C1CCOCC1)c(=O)n2C [AZD7648]; settings: max 10 µM
Outline: as §1

[6] = compound: CN(CC[C@H](CSC1=CC=CC=C1)NC2=C(C=C(C=C2)S(=O)(=O)NC(=O)C3=CC=C(C=C3)N4CCC(CC4)[C@H](C5=CC=CC=C5C6=CC=C(C=C6)Cl)O)S(=O)(=O)C(F)(F)F)CCO [AZD4320]; settings: max 1 µM
Outline: as §1

[7] = compound: COc1cc(Nc2ncc3c(n2)-c2ccc(Cl)cc2C(c2c(F)cccc2OC)=NC3)ccc1C(=O)O [Alisertib]; settings: max 10 µM
Outline: as §1

[8] = compound: CC1(C)CCC(CN2CCN(c3ccc(C(=O)NS(=O)(=O)c4ccc(NCC5CCOCC5)c([N+](=O)[O-])c4)c(Oc4cnc5[nH]ccc5c4)c3)CC2)=C(c2ccc(Cl)cc2)C1 [Venetoclax]; settings: max 1 µM
Outline: as §1

[9] = compound: CN(C)CCCOc1ccc(-c2ccc3ncc4c(c3c2)n(C2CCOCC2)c(=O)n4C)cn1 [AZD0156]; settings: max 3 µM
Outline: as §1

[10] = compound: O=C(Nc1ccc2[nH]nc(-c3ccncc3)c2c1)[C@@H]1CCN(CC(=O)N2CCN(c3ccc(-c4ncccn4)cc3)CC2)C1; settings: max 5 µM
Outline: as §1

[11] = compound: COc1cccc2c1C(=O)c1c(O)c3c(c(O)c1C2=O)C[C@@](O)(C(=O)CO)C[C@@H]3O[C@H]1C[C@H](N)[C@H](O)[C@H](C)O1 [Doxorubicin]; settings: max 1 µM
Outline: as §1

[12] = compound: C1CN(CCC1(C(=O)N[C@@H](CCO)C2=CC=C(C=C2)Cl)N)C3=NC=NC4=C3C=CN4 [AZD5363]; settings: max 10 µM
Outline: as §1

[13] = compound: Cc1nc(-c2cn3c(n2)-c2ccc(-c4cnn(C(C)(C)C(N)=O)c4)cc2OCC3)n(C(C)C)n1 [Taselisib]; settings: max 10 µM
Outline: as §1

[14] = compound: CC(=O)Nc1cccc(-n2c(=O)n(C3CC3)c(=O)c3c(Nc4ccc(I)cc4F)n(C)c(=O)c(C)c32)c1 [Trametinib]; settings: max 1 µM
Outline: as §1

[15] = compound: CCc1c2c(nc3ccc(O)cc13)-c1cc3c(c(=O)n1C2)COC(=O)[C@]3(O)CC [SN-38]; settings: max 0.3 µM
Outline: as §1

[16] = compound: C[C@@H](c1ccc2nccn2c1)n1nnc2ncc(-c3cnn(C)c3)nc21 [Savolitinib]; settings: max 1 µM
Outline: as §1

[17] = compound: CCN(CCO)CCCOc1ccc2c(Nc3cc(CC(=O)Nc4cccc(F)c4)[nH]n3)ncnc2c1 [AZD2811]; settings: max 1 µM
Outline: as §1

[18] = compound: N#Cc1cnc(Nc2cc(NC[C@H]3CNCCO3)c(C(F)(F)F)cn2)cn1 [SRA737]; settings: max 10 µM
Outline: as §1

[19] = compound: NC1(c2ccc(-c3nc4ccn5c(=O)[nH]nc5c4cc3-c3ccccc3)cc2)CCC1 [MK-2206]; settings: max 10 µM
Outline: as §1

[20] = compound: Nc1ccn([C@@H]2O[C@H](CO)[C@@H](O)C2(F)F)c(=O)n1 [Gemcitabine]; settings: max 0.3 µM
Outline: as §1

[21] = compound: CC1=CN2[C@@H](C1)C=NC3=CC(=C(C=C3C2=O)OC)OCCCCCOC4=C(C=C5C(=C4)N=C[C@@H]6CC(=CN6C5=O)C)OC [SG3199]; settings: max 0.001 µM
Outline: as §1

[22] = compound: CC(C)n1c(=O)n(C)c2cnc3cc(F)c(-c4ccc(OCCCN5CCCCC5)nc4)cc3c21 [AZD1390]; settings: max 0.3 µM
Outline: as §1

[23] = compound: Cc1c2c(nn1C)CSCc1cc(n(C)n1)CSc1cc(c3ccccc3c1)OCCCc1c(C(=O)O)n(C)c3c-2c(Cl)ccc13 [AZD5991]; settings: max 1 µM
Outline: as §1

[24] = compound: COc1cc2ncnc(Nc3ccc(F)c(Cl)c3)c2cc1OCCCN1CCOCC1 [Gefitinib]; settings: max 10 µM
Outline: as §1

[25] = compound: C=CCn1c(=O)c2cnc(Nc3ccc(N4CCN(C)CC4)cc3)nc2n1-c1cccc(C(C)(C)O)n1 [AZD1775]; settings: max 3 µM
Outline: as §1

[26] = compound: O=C(c1cc(Cc2n[nH]c(=O)c3ccccc23)ccc1F)N1CCN(C(=O)C2CC2)CC1 [Olaparib]; settings: max 10 µM
Outline: as §1

[27] = compound: COc1cccc(OCCCN)c1-c1cc(Nc2cnc(C#N)cn2)n[nH]1 [Prexasertib]; settings: max 1 µM
Outline: as §1

[28] = compound: C[C@@H](Nc1cc(F)cc(F)c1)c1cc(C(=O)N(C)C)cc2c(=O)cc(N3CCOCC3)oc12 [AZD8186]; settings: max 10 µM
Outline: as §1

[29] = compound: Cn1cnc2c(F)c(Nc3ccc(Br)cc3Cl)c(C(=O)NOCCO)cc21 [Selumetinib]; settings: max 10 µM
Outline: as §1

[30] = compound: CC1=C(C(=CC=C1)Cl)NC(=O)C2=CN=C(S2)NC3=CC(=NC(=N3)C)N4CCN(CC4)CCO [Dasatinib]; settings: max 2 µM
Outline: as §1

[31] = compound: CC(=O)O[C@H]1C(=O)[C@@]2(C)[C@H]([C@H](OC(=O)c3ccccc3)[C@]3(O)C[C@H](OC(=O)[C@H](O)[C@@H](NC(=O)c4ccccc4)c4ccccc4)C(C)=C1C3(C)C)[C@]1(OC(C)=O)CO[C@@H]1C[C@@H]2O [Paclitaxel]; settings: max 3 µM
Outline: as §1

[32] = compound: C1CC(C1)(C(=O)[O-])C(=O)[O-].N.N.[Pt+2] [Carboplatin]; settings: max 10 µM
Outline: as §1

[33] = compound: CS(=O)(=O)CCNCc1ccc(-c2ccc3ncnc(Nc4ccc(OCc5cccc(F)c5)c(Cl)c4)c3c2)o1 [Lapatinib]; settings: max 10 µM
Outline: as §1

[34] = compound: COc1cc([C@@H]2c3cc4c(cc3[C@@H](O[C@@H]3O[C@@H]5CO[C@@H](C)O[C@H]5[C@H](O)[C@H]3O)[C@H]3COC(=O)[C@H]23)OCO4)cc(OC)c1O [Etoposide]; settings: max 10 µM
Outline: as §1

[35] = compound: O=c1[nH]cc(F)c(=O)[nH]1 [5-Fluorouracil]; settings: max 20 µM
Outline: as §1

Cell Line | IC50, cell viability 72 h [1] | IC50, cell viability 72 h [2] | IC50, cell viability 72 h [3] | IC50, cell viability 72 h [4] | IC50, cell viability 72 h [5] | IC50, cell viability 72 h [6] | IC50, cell viability 72 h [7] | IC50, cell viability 72 h [8] | IC50, cell viability 72 h [9] | IC50, cell viability 72 h [10] | IC50, cell viability 72 h [11] | IC50, cell viability 72 h [12] | IC50, cell viability 72 h [13] | IC50, cell viability 72 h [14] | IC50, cell viability 72 h [15] | IC50, cell viability 72 h [16] | IC50, cell viability 72 h [17] | IC50, cell viability 72 h [18] | IC50, cell viability 72 h [19] | IC50, cell viability 72 h [20] | IC50, cell viability 72 h [21] | IC50, cell viability 72 h [22] | IC50, cell viability 72 h [23] | IC50, cell viability 72 h [24] | IC50, cell viability 72 h [25] | IC50, cell viability 72 h [26] | IC50, cell viability 72 h [27] | IC50, cell viability 72 h [28] | IC50, cell viability 72 h [29] | IC50, cell viability 72 h [30] | IC50, cell viability 72 h [31] | IC50, cell viability 72 h [32] | IC50, cell viability 72 h [33] | IC50, cell viability 72 h [34] | IC50, cell viability 72 h [35]
H4 (Low Grade Glioma) | 3 µM | 0.164 µM | 6.45 µM | 3.6 µM | > 10 µM | > 1 µM | 0.312 µM | > 1 µM | > 3 µM | > 5 µM | 0.157 µM | 6.25 µM | 3.68 µM | > 1 µM | 0.0233 µM | > 1 µM | > 1 µM | > 10 µM | > 10 µM | 0.0223 µM | > 0.001 µM | > 0.3 µM | > 1 µM | > 10 µM | 0.108 µM | > 10 µM | 0.0604 µM | 3.8 µM | > 10 µM | > 2 µM | 0.0324 µM | > 10 µM | > 10 µM | 2 µM | 9.69 µM
EW-22 (Ewing's Sarcoma) | 3.93 µM | 0.982 µM | > 10 µM | 1.4 µM | > 10 µM | 0.178 µM | 0.563 µM | 0.72 µM | > 3 µM | > 5 µM | 0.0648 µM | > 10 µM | 0.936 µM | > 1 µM | 0.00131 µM | > 1 µM | 0.0788 µM | 3.01 µM | > 10 µM | 0.00606 µM | > 0.001 µM | > 0.3 µM | > 1 µM | > 10 µM | 0.694 µM | 1.73 µM | 0.00762 µM | > 10 µM | > 10 µM | > 2 µM | 0.0192 µM | > 10 µM | > 10 µM | 1.15 µM | > 20 µM
BICR78 (Oral Cavity Carcinoma) | > 10 µM | 0.966 µM | > 10 µM | 7.52 µM | > 10 µM | > 1 µM | > 10 µM | > 1 µM | > 3 µM | > 5 µM | > 1 µM | > 10 µM | 5.01 µM | > 1 µM | 0.0284 µM | > 1 µM | > 1 µM | > 10 µM | > 10 µM | > 0.3 µM | > 0.001 µM | > 0.3 µM | > 1 µM | > 10 µM | > 3 µM | > 10 µM | 0.238 µM | > 10 µM | > 10 µM | > 2 µM | 0.0493 µM | > 10 µM | > 10 µM | > 10 µM | > 20 µM
SK-UT-1 (Other Solid Carcinomas) | > 10 µM | 0.694 µM | > 10 µM | 4.17 µM | > 10 µM | > 1 µM | > 10 µM | > 1 µM | > 3 µM | > 5 µM | 0.971 µM | > 10 µM | 8.85 µM | > 1 µM | 0.0227 µM | > 1 µM | > 1 µM | 3.42 µM | > 10 µM | 0.00912 µM | > 0.001 µM | > 0.3 µM | > 1 µM | > 10 µM | 1.1 µM | > 10 µM | 0.0216 µM | > 10 µM | > 10 µM | > 2 µM | 0.0282 µM | > 10 µM | > 10 µM | 3.4 µM | > 20 µM
HCC38 (Breast Carcinoma) | > 10 µM | > 1 µM | > 10 µM | > 10 µM | > 10 µM | 0.503 µM | > 10 µM | > 1 µM | > 3 µM | > 5 µM | > 1 µM | > 10 µM | > 10 µM | > 1 µM | 0.0695 µM | > 1 µM | > 1 µM | > 10 µM | > 10 µM | 0.172 µM | > 0.001 µM | > 0.3 µM | > 1 µM | > 10 µM | 0.43 µM | > 10 µM | 0.0804 µM | > 10 µM | > 10 µM | > 2 µM | 0.296 µM | > 10 µM | > 10 µM | > 10 µM | > 20 µM
